Earlier results on 1 compound are cited in PMC7583271 (Journal of Insect Science, 2020).

The target in this data set is antennal binding protein (PxylABP, accession no. AB189031.1). The note with it: unit inferred, ref Deng et al. 2016.

As to `C=CCN=C=S` [Allyl isothiocyanate], the Kd was 910 nM.

The term Kd denotes the free concentration of one partner at which half of the binding sites on the other are occupied at equilibrium, for simple one-to-one binding.
